# Source: the CheMixHub viscosity set
# ± gives the uncertainty stated by the source.
# Test: xn = mol fraction of the nth substance listed
smiles,measurement,setting,value
CC(C)OCCO + CCCCCCO,viscosity,"298.15 K, 101 kPa, x1 = 0.0533",4.409 ± 0.27 mPa·s
same,viscosity,"298.15 K, 101 kPa, x1 = 0.1018",4.192 ± 0.25 mPa·s
same,viscosity,"298.15 K, 101 kPa, x1 = 0.1512",3.993 ± 0.24 mPa·s
same,viscosity,"298.15 K, 101 kPa, x1 = 0.2013",3.789 ± 0.23 mPa·s
same,viscosity,"298.15 K, 101 kPa, x1 = 0.254",3.6 ± 0.22 mPa·s
same,viscosity,"298.15 K, 101 kPa, x1 = 0.3074",3.4 ± 0.2 mPa·s
same,viscosity,"298.15 K, 101 kPa, x1 = 0.4034",3.103 ± 0.19 mPa·s
same,viscosity,"298.15 K, 101 kPa, x1 = 0.5044",2.834 ± 0.17 mPa·s
same,viscosity,"298.15 K, 101 kPa, x1 = 0.6042",2.631 ± 0.16 mPa·s
same,viscosity,"298.15 K, 101 kPa, x1 = 0.7118",2.449 ± 0.15 mPa·s
same,viscosity,"298.15 K, 101 kPa, x1 = 0.8046",2.312 ± 0.14 mPa·s
same,viscosity,"298.15 K, 101 kPa, x1 = 0.8418",2.305 ± 0.14 mPa·s
same,viscosity,"298.15 K, 101 kPa, x1 = 0.9001",2.262 ± 0.14 mPa·s
same,viscosity,"298.15 K, 101 kPa, x1 = 0.953",2.226 ± 0.13 mPa·s
same,viscosity,"303.15 K, 101 kPa, x1 = 0.0533",3.75 ± 0.23 mPa·s
same,viscosity,"303.15 K, 101 kPa, x1 = 0.1018",3.555 ± 0.21 mPa·s
same,viscosity,"303.15 K, 101 kPa, x1 = 0.1512",3.38 ± 0.2 mPa·s
same,viscosity,"303.15 K, 101 kPa, x1 = 0.2013",3.2 ± 0.19 mPa·s
same,viscosity,"303.15 K, 101 kPa, x1 = 0.254",3.033 ± 0.18 mPa·s
same,viscosity,"303.15 K, 101 kPa, x1 = 0.3074",2.857 ± 0.17 mPa·s
same,viscosity,"303.15 K, 101 kPa, x1 = 0.4034",2.596 ± 0.16 mPa·s
same,viscosity,"303.15 K, 101 kPa, x1 = 0.5044",2.374 ± 0.14 mPa·s
same,viscosity,"303.15 K, 101 kPa, x1 = 0.6042",2.216 ± 0.13 mPa·s
same,viscosity,"303.15 K, 101 kPa, x1 = 0.7118",2.079 ± 0.12 mPa·s
same,viscosity,"303.15 K, 101 kPa, x1 = 0.8046",1.985 ± 0.12 mPa·s
same,viscosity,"303.15 K, 101 kPa, x1 = 0.8418",1.991 ± 0.12 mPa·s
same,viscosity,"303.15 K, 101 kPa, x1 = 0.9001",1.975 ± 0.12 mPa·s
same,viscosity,"303.15 K, 101 kPa, x1 = 0.953",1.952 ± 0.12 mPa·s
same,viscosity,"308.15 K, 101 kPa, x1 = 0.0533",3.294 ± 0.2 mPa·s
same,viscosity,"308.15 K, 101 kPa, x1 = 0.1018",3.096 ± 0.19 mPa·s
same,viscosity,"308.15 K, 101 kPa, x1 = 0.1512",2.917 ± 0.18 mPa·s
same,viscosity,"308.15 K, 101 kPa, x1 = 0.2013",2.752 ± 0.17 mPa·s
same,viscosity,"308.15 K, 101 kPa, x1 = 0.254",2.601 ± 0.16 mPa·s
same,viscosity,"308.15 K, 101 kPa, x1 = 0.3074",2.449 ± 0.15 mPa·s
same,viscosity,"308.15 K, 101 kPa, x1 = 0.4034",2.216 ± 0.13 mPa·s
same,viscosity,"308.15 K, 101 kPa, x1 = 0.5044",2.028 ± 0.12 mPa·s
same,viscosity,"308.15 K, 101 kPa, x1 = 0.6042",1.894 ± 0.11 mPa·s
same,viscosity,"308.15 K, 101 kPa, x1 = 0.7118",1.79 ± 0.11 mPa·s
same,viscosity,"308.15 K, 101 kPa, x1 = 0.8046",1.758 ± 0.11 mPa·s
same,viscosity,"308.15 K, 101 kPa, x1 = 0.8418",1.777 ± 0.11 mPa·s
same,viscosity,"308.15 K, 101 kPa, x1 = 0.9001",1.763 ± 0.11 mPa·s
same,viscosity,"308.15 K, 101 kPa, x1 = 0.953",1.771 ± 0.11 mPa·s
CC(C)OCCO + CCCCCO,viscosity,"298.15 K, 101.33 kPa, x1 = 0.0159",3.466 ± 0.031 mPa·s
same,viscosity,"298.15 K, 101.33 kPa, x1 = 0.0312",3.405 ± 0.03 mPa·s
same,viscosity,"298.15 K, 101.33 kPa, x1 = 0.0461",3.354 ± 0.03 mPa·s
same,viscosity,"298.15 K, 101.33 kPa, x1 = 0.0653",3.292 ± 0.03 mPa·s
same,viscosity,"298.15 K, 101.33 kPa, x1 = 0.0867",3.234 ± 0.029 mPa·s
same,viscosity,"298.15 K, 101.33 kPa, x1 = 0.1097",3.16 ± 0.029 mPa·s
same,viscosity,"298.15 K, 101.33 kPa, x1 = 0.137",3.099 ± 0.029 mPa·s
same,viscosity,"298.15 K, 101.33 kPa, x1 = 0.1627",3.029 ± 0.028 mPa·s
same,viscosity,"298.15 K, 101.33 kPa, x1 = 0.1931",2.952 ± 0.028 mPa·s
same,viscosity,"298.15 K, 101.33 kPa, x1 = 0.2267",2.881 ± 0.028 mPa·s
same,viscosity,"298.15 K, 101.33 kPa, x1 = 0.2585",2.819 ± 0.027 mPa·s
same,viscosity,"298.15 K, 101.33 kPa, x1 = 0.2966",2.748 ± 0.027 mPa·s
same,viscosity,"298.15 K, 101.33 kPa, x1 = 0.3417",2.677 ± 0.027 mPa·s
same,viscosity,"298.15 K, 101.33 kPa, x1 = 0.3843",2.61 ± 0.026 mPa·s
same,viscosity,"298.15 K, 101.33 kPa, x1 = 0.4446",2.526 ± 0.026 mPa·s
same,viscosity,"298.15 K, 101.33 kPa, x1 = 0.4848",2.473 ± 0.026 mPa·s
same,viscosity,"298.15 K, 101.33 kPa, x1 = 0.4956",2.461 ± 0.026 mPa·s
same,viscosity,"298.15 K, 101.33 kPa, x1 = 0.5246",2.432 ± 0.026 mPa·s
same,viscosity,"298.15 K, 101.33 kPa, x1 = 0.5561",2.397 ± 0.026 mPa·s
same,viscosity,"298.15 K, 101.33 kPa, x1 = 0.6012",2.357 ± 0.026 mPa·s
same,viscosity,"298.15 K, 101.33 kPa, x1 = 0.6643",2.297 ± 0.026 mPa·s
same,viscosity,"298.15 K, 101.33 kPa, x1 = 0.7168",2.261 ± 0.026 mPa·s
same,viscosity,"298.15 K, 101.33 kPa, x1 = 0.7741",2.218 ± 0.026 mPa·s
same,viscosity,"298.15 K, 101.33 kPa, x1 = 0.8198",2.191 ± 0.026 mPa·s
same,viscosity,"298.15 K, 101.33 kPa, x1 = 0.8573",2.167 ± 0.026 mPa·s
same,viscosity,"298.15 K, 101.33 kPa, x1 = 0.8964",2.142 ± 0.026 mPa·s
same,viscosity,"298.15 K, 101.33 kPa, x1 = 0.9259",2.133 ± 0.026 mPa·s
same,viscosity,"298.15 K, 101.33 kPa, x1 = 0.9558",2.116 ± 0.026 mPa·s
same,viscosity,"298.15 K, 101.33 kPa, x1 = 0.9775",2.11 ± 0.026 mPa·s
O=C(Cc1ccccc1)Cc1ccccc1 + CCCCCOC(C)=O,viscosity,"298.15 K, 101 kPa, x1 = 0.0269",0.8322 ± 0.01 mPa·s
same,viscosity,"298.15 K, 101 kPa, x1 = 0.0305",0.8358 ± 0.01 mPa·s
Oc1cccc(Cl)c1 + CCCCCOC(C)=O,viscosity,"298.15 K, 101 kPa, x1 = 0.5",1.244 ± 0.012 mPa·s
CCCCCC(C)C + CCCCO,viscosity,"293.15 K, 100 kPa, x2 = 0.1005",0.528 ± 0.007 mPa·s
same,viscosity,"293.15 K, 100 kPa, x2 = 0.2014",0.576 ± 0.008 mPa·s
same,viscosity,"293.15 K, 100 kPa, x2 = 0.3002",0.634 ± 0.008 mPa·s
same,viscosity,"293.15 K, 100 kPa, x2 = 0.4",0.741 ± 0.009 mPa·s
same,viscosity,"293.15 K, 100 kPa, x2 = 0.5004",0.891 ± 0.011 mPa·s
same,viscosity,"293.15 K, 100 kPa, x2 = 0.6006",1.1 ± 0.01 mPa·s
same,viscosity,"293.15 K, 100 kPa, x2 = 0.7",1.37 ± 0.02 mPa·s
same,viscosity,"293.15 K, 100 kPa, x2 = 0.8001",1.74 ± 0.02 mPa·s
same,viscosity,"293.15 K, 100 kPa, x2 = 0.9",2.24 ± 0.03 mPa·s
same,viscosity,"303.15 K, 100 kPa, x2 = 0.1005",0.467 ± 0.007 mPa·s
same,viscosity,"303.15 K, 100 kPa, x2 = 0.2014",0.508 ± 0.007 mPa·s
same,viscosity,"303.15 K, 100 kPa, x2 = 0.3002",0.549 ± 0.008 mPa·s
same,viscosity,"303.15 K, 100 kPa, x2 = 0.4",0.635 ± 0.008 mPa·s
same,viscosity,"303.15 K, 100 kPa, x2 = 0.5004",0.748 ± 0.009 mPa·s
same,viscosity,"303.15 K, 100 kPa, x2 = 0.6006",0.902 ± 0.011 mPa·s
same,viscosity,"303.15 K, 100 kPa, x2 = 0.7",1.11 ± 0.01 mPa·s
same,viscosity,"303.15 K, 100 kPa, x2 = 0.8001",1.38 ± 0.02 mPa·s
same,viscosity,"303.15 K, 100 kPa, x2 = 0.9",1.75 ± 0.02 mPa·s
same,viscosity,"313.15 K, 100 kPa, x2 = 0.1005",0.413 ± 0.006 mPa·s
same,viscosity,"313.15 K, 100 kPa, x2 = 0.2014",0.447 ± 0.007 mPa·s
same,viscosity,"313.15 K, 100 kPa, x2 = 0.3002",0.476 ± 0.007 mPa·s
same,viscosity,"313.15 K, 100 kPa, x2 = 0.4",0.548 ± 0.008 mPa·s
same,viscosity,"313.15 K, 100 kPa, x2 = 0.5004",0.633 ± 0.008 mPa·s
same,viscosity,"313.15 K, 100 kPa, x2 = 0.6006",0.751 ± 0.009 mPa·s
same,viscosity,"313.15 K, 100 kPa, x2 = 0.7",0.906 ± 0.011 mPa·s
same,viscosity,"313.15 K, 100 kPa, x2 = 0.8001",1.11 ± 0.01 mPa·s
same,viscosity,"313.15 K, 100 kPa, x2 = 0.9",1.39 ± 0.02 mPa·s
same,viscosity,"323.15 K, 100 kPa, x2 = 0.1005",0.364 ± 0.006 mPa·s
same,viscosity,"323.15 K, 100 kPa, x2 = 0.2014",0.391 ± 0.006 mPa·s
same,viscosity,"323.15 K, 100 kPa, x2 = 0.3002",0.422 ± 0.006 mPa·s
same,viscosity,"323.15 K, 100 kPa, x2 = 0.4",0.473 ± 0.007 mPa·s
same,viscosity,"323.15 K, 100 kPa, x2 = 0.5004",0.539 ± 0.007 mPa·s
same,viscosity,"323.15 K, 100 kPa, x2 = 0.6006",0.633 ± 0.008 mPa·s
same,viscosity,"323.15 K, 100 kPa, x2 = 0.7",0.751 ± 0.009 mPa·s
same,viscosity,"323.15 K, 100 kPa, x2 = 0.8001",0.907 ± 0.011 mPa·s
same,viscosity,"323.15 K, 100 kPa, x2 = 0.9",1.12 ± 0.01 mPa·s
